Experimental data taken from US10710988B2, “Piperazine derivative” (Astellas Pharma Inc., priority 2016, dated 2020).
pEC50: −log10 of the molar value. Structures can show the parent of a compound that is named as a salt.

Assays:
Format in all cases: cell-based
[1] = molecular target: T1, human MC1 receptor (Homo sapiens, UniProt Q01726); assay: Human MC1 receptor activation, cAMP production in cells transiently expressing the receptor; details: FreeStyle 293-F cells expressing human MC1 receptor, α-MSH maximum = 100%
T1 construct: expressed in transfected cells; host or cells: FreeStyle 293-F cells (transient, electroporation)
T1 sequence (Q01726 whole entry): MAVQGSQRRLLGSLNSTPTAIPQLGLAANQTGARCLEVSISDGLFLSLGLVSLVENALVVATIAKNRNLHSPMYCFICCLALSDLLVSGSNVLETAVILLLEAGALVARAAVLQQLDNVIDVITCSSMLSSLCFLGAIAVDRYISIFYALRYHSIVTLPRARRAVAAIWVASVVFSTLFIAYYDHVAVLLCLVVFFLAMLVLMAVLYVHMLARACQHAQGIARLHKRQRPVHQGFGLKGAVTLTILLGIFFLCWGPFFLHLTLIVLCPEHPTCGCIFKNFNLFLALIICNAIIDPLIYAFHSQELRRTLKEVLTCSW
Excerpt: (§1) (1) Construction of Human MC Receptor-Expressing Vector
(§2) A human MC4 receptor gene (GenBank Accession No.: NM_005912.2), a human MC1 receptor gene (GenBank Accession No.: NM_002386.3), or a human MC3 receptor gene (GenBank Accession No.: NM_019888.3) was introduced into an expression vector pcDNA™ 3.1N/V5-His TOPO (registered trademark) (Thermo Fisher Scientific Inc).
(§3) (2) Construction of Cells Transiently Expressing Human MC Receptor
(§4) An expression vector for a human MC4, MC1, or MC3 receptor was introduced into FreeStyle™ 293-F cells (Thermo Fisher Scientific Inc., product number: R790-07). For the introduction, electroporation was employed. That is, 1×10^7 FreeStyle™ 293-F cells were suspended in 80 μL of an Electroporation Buffer (Thermo Fisher Scientific Inc., product number: B201-100), and 20 μg of the expression vector was added thereto. The resultant was put into a cuvette (OC-100 Processing Assembly, MaxCyte, Inc.) and electroporated with MaxCyte STX (registered trademark) (MaxCyte, Inc.). The cells were cultured for a day, suspended in a Cell Banker (registered trademark) 1 (TAKARA BIO INC. or JUJI FIELD Inc., product number: BLC-1), and stored frozen until they were used.
(§5) (3) Measurement of Amount of cAMP Production
(§6) Measurement was carried out by using a LANCE (registered trademark) Ultra cAMP Kit (PerkinElmer, Inc.) in accordance with the attached instructions. That is, after dissolution in DMSO, the test compound (a final concentration of 1 pM to 30 μM) diluted with an assay buffer (Hank's balanced salt solution, 5 mM 4-(2-hydroxyethyl)-1-piperazineethanesulfonic acid (HEPES), 0.5 mM 3-isobutyl-1-methylxanthine (IBMX), 0.1% bovine serum albumin, pH 7.4), or α-MSH (Bachem Inc., a final concentration of 1 pM to 30 μM) was added to OptiPlate-384 (PerkinElmer, Inc.). Furthermore, the suspension of the cells transiently expressing the human MC4, MC1, or MC3 receptor prepared using the assay buffer was added thereto at 1,000 cells/well, and then left to stand at room temperature for about 1 hour. Thereafter, an Eu-cAMP tracer solution and an ULight™-anti-cAMP solution were added thereto, and then the resulting solution was left to stand at room temperature for about 1 hour. The amount of cAMP was calculated using EnVision (registered trademark) (PerkinElmer Inc.).
(§7) For the agonistic activity, the efficacy (EC50 (μM)) was calculated by a non-linear regression method with a Sigmoid-Emax model, by defining the maximum reaction using α-MSH as 100% and the reaction using the vehicle alone as 0%, respectively.

[2] = molecular target: T2, rat MC4 receptor (Rattus norvegicus, UniProt P70596); assay: Rat MC4 receptor activation, cAMP production in cells transiently expressing the receptor; details: FreeStyle 293-F cells expressing rat MC4 receptor, α-MSH maximum = 100%
T2 construct: expressed in transfected cells; host or cells: FreeStyle 293-F cells (transient, electroporation)
T2 sequence (P70596 whole entry): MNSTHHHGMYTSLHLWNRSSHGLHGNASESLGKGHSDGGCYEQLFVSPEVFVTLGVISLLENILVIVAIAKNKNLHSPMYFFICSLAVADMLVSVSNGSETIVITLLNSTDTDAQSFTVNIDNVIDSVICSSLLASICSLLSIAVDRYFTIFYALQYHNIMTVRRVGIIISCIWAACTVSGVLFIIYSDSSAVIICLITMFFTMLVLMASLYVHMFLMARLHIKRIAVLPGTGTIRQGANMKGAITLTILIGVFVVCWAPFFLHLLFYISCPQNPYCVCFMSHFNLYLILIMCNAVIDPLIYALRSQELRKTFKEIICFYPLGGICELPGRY
Excerpt: (1) Construction of Rat MC4 Receptor-Expressing Vector
A rat MC4 receptor gene (GenBank Accession No.: NM_013099.3) was introduced into an expression vector pcDNA™ 3.1N/V5-His TOPO (registered trademark) (Thermo Fisher Scientific Inc.).
(2) Construction of Cells Transiently Expressing Rat MC4 Receptor
as §4, with “rat MC4” for “human MC4, MC1, or MC3”, “Inc.).” for “Inc., product number: R790-07).”, “electroporation buffer” for “Electroporation Buffer”, “Inc.),” for “Inc., product number: B201-100),”, “Inc.),” for “Inc., product number: BLC-1),”
as §5
Measurement was carried out in accordance with the attached instructions, using a LANCE (registered trademark) Ultra cAMP Kit (PerkinElmer, Inc.). That is, after dissolution in DMSO, the test compound (a final concentration of 1 pM to 30 μM) diluted with an assay buffer (Hank's balanced salt solution, 5 mM HEPES, 0.5 mM IBMX, 0.1% bovine serum albumin, pH 7.4), or α-MSH (Bachem Inc., a final concentration of 1 pM to 30 μM) was added to OptiPlate-384 (PerkinElmer, Inc.). Furthermore, the suspension of the cells transiently expressing the rat MC receptor that was prepared using the assay buffer was added thereto at 1,000 cells/well, and then left to stand at room temperature for about 1 hour. Thereafter, an Eu-cAMP tracer solution and an ULight™-anti-cAMP solution were added thereto, and the resulting solution was left to stand at room temperature for about 1 hour. The amount of cAMP was calculated using EnVision (registered trademark) (PerkinElmer Inc).
For the agonistic activity, an efficacy (EC50 (μM)) was calculated by a non-linear regression method with a Sigmoid-Emax model, by defining the maximum reaction using α-MSH as 100% and the reaction using a vehicle alone as 0%, respectively.

[3] = molecular target: T3, human MC3 receptor (Homo sapiens, UniProt P41968); assay: Human MC3 receptor activation, cAMP production in cells transiently expressing the receptor; details: FreeStyle 293-F cells expressing human MC3 receptor, α-MSH maximum = 100%
T3 construct: expressed in transfected cells; host or cells: FreeStyle 293-F cells (transient, electroporation)
T3 sequence (P41968 whole entry): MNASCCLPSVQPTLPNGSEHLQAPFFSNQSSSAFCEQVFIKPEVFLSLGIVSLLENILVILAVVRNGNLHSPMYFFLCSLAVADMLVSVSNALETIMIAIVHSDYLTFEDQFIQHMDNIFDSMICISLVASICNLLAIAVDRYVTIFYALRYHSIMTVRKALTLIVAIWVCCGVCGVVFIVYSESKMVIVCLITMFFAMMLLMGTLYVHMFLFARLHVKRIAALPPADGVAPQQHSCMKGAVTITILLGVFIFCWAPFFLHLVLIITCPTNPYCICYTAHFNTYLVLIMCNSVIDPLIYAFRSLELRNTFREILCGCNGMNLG
Excerpt: as §1, §2, §3, §4, §5, §6, §7

[4] = molecular target: T4, human MC4 receptor (Homo sapiens, UniProt P32245); assay: Human MC4 receptor activation, cAMP production in cells transiently expressing the receptor; details: FreeStyle 293-F cells expressing human MC4 receptor, α-MSH maximum = 100%
T4 construct: expressed in transfected cells; host or cells: FreeStyle 293-F cells (transient, electroporation)
T4 sequence (P32245 whole entry): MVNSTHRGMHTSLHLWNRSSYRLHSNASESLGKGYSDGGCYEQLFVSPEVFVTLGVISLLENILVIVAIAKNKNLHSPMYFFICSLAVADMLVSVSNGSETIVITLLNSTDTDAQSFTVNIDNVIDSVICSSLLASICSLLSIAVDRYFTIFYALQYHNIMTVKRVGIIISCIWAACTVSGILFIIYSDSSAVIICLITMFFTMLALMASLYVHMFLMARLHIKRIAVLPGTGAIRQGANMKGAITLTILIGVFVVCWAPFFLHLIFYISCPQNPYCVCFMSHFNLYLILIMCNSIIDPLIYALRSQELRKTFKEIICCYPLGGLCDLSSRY
Excerpt: as §1, §2, §3, §4, §5, §6, §7

Row | Compound | pEC50 [1] | pEC50 [2] | pEC50 [3] | pEC50 [4]
1 | CC(=O)N(C)[C@H](C(=O)N1CCN(C(=O)[C@@H]2CN(C(C)(C)C)C[C@H]2c2ccc(F)cc2F)[C@@H](C)C1)C1CCCCC1 [Example 10] | – | – | – | 7.92
2 | COC[C@H]1CN(C(=O)[C@H](CC(C)C)NC(C)=O)CCN1C(=O)C1CN(C(C)(C)C)CC1c1ccc(Br)cc1F (stereo partly shown) [Example 12] | – | – | – | 7.85
3 | CC(=O)N[C@H](C(=O)N1CCN(C(=O)[C@@H]2CN(C(C)(C)C)C[C@H]2c2ccc(F)cc2F)[C@@H](C)C1)C1CCCC1 [Example 15] | – | – | – | 6.66
4 | CC(=O)N[C@@H](Cc1cccc(F)c1)C(=O)N1CCN(C(=O)[C@@H]2CN(C(C)(C)C)C[C@H]2c2ccc(F)cc2F)[C@@H](C)C1 [Example 17] | – | – | – | 7.40
5 | CC(=O)N[C@@H](CC1CCC(C)(C)CC1)C(=O)N1CCN(C(=O)[C@@H]2CN(C(C)(C)C)C[C@H]2c2ccc(F)cc2F)[C@@H](C)C1 [Example 18, N-[(2S)-1-[(3S)-4-{[(3 S,4R)-1-tert-butyl-4-(2,4-difluorophenyl)pyrrolidin-3-yl]carbonyl}-3-methylpiperazin-1-yl]-3-(4,4-dimethylcyclohexyl)-1-oxopropan-2-yl]acetamide monohydrochloride] | – | – | – | 7.21
6 | CC(=O)N[C@@H](CC1CCC(F)(F)CC1)C(=O)N1CCN(C(=O)[C@@H]2CN(C(C)(C)C)C[C@H]2c2ccc(F)cc2F)[C@@H](C)C1 [Example 19] | – | – | – | 6.42
7 | CC(=O)N[C@@H](CC(C)(C)C)C(=O)N1CCN(C(=O)C2CN(C(C)(C)C)CC2c2ccc(Cl)cn2)[C@@H](C)C1 (stereo partly shown) [Example 23] | 6.06 | 8.32 | 6.35 | 7.64
8 | CC(=O)N[C@@H](CC(C)(C)C)C(=O)N1CCN(C(=O)[C@@H]2CN(C(C)C)C[C@H]2c2ccc(F)cc2F)[C@@H](C)C1 [Example 24, N-{(2S)-1-[(3S)-4-{[(3S,4R)-4-(2,4-difluorophenyl)-1-isopropylpyrrolidin-3-yl]carbonyl}-3-methylpiperazin-1-yl]-4,4-dimethyl-1-oxopentan-2-yl}acetamide monohydrochloride] | 5.82 | 7.34 | 5.19 | 7.11
9 | CC(=O)N[C@@H](CC(C)(C)C)C(=O)N1CCN(C(=O)[C@@H]2CN(CC3CC3)C[C@H]2c2ccc(F)cc2F)[C@@H](C)C1 [Example 27] | – | – | – | 6.00
10 | C[C@H]1CN(C(=O)[C@H](Cc2ccccc2Cl)N(C)C)CCN1C(=O)[C@@H]1CN(C(C)(C)C)C[C@H]1c1ccc(F)cc1F [Example 28, (2S)-1-[(3S)-4-{[(3 S,4R)-1-tert-butyl-4-(2,4-difluorophenyl)pyrrolidin-3-yl]carbonyl}-3-methylpiperazin-1-yl]-3-(2-chlorophenyl)-2-(dimethylamino)propan-1-one dihydrochloride] | – | – | – | 8.26
11 | CC(C)C[C@H](NS(C)(=O)=O)C(=O)N1CCN(C(=O)[C@@H]2CN(C3CCOCC3)C[C@H]2c2ccc(Cl)cc2F)[C@@H](C)C1 [Example 29, N-{(2S)-1-[(3S)-4-{[(3S,4R)-4-(4-chloro-2-fluorophenyl)-1-(tetrahydro-2H-pyran-4-yl)pyrrolidin-3-yl]carbonyl}-3-methylpiperazin-1-yl]-4-methyl-1-oxopentan-2-yl}methanesulfonamide monohydrochloride] | – | – | – | 6.55
12 | C[C@H]1CN(C(=O)[C@@H](N)C2CCCCC2)CCN1C(=O)[C@@H]1CN(C(C)(C)C)C[C@H]1c1ccc(F)cc1F [Example 30, (2S)-2-amino-1-[(3S)-4-{[(3S,4R)-1-tert-butyl-4-(2,4-difluorophenyl)pyrrolidin-3-yl]carbonyl}-3-methylpiperazin-1-yl]-2-cyclohexylethanone dihydrochloride] | – | – | – | 5.74

Further lines, results first:

Row | pEC50 [1] | pEC50 [2] | pEC50 [3] | pEC50 [4] | Compound
13 | 6.17 | 7.82 | 5.36 | 7.11 | CC(=O)N[C@@H](Cc1ccc(Cl)cc1)C(=O)N1CCN(C(=O)[C@@H]2CN(C(C)(C)C)C[C@H]2c2ccc(F)cc2F)[C@@H](C)C1 [Example 7]
14 | – | – | – | 7.05 | C[C@H]1CN(C(=O)[C@@H](NC(=O)C2CC2)C2CCCCC2)CCN1C(=O)[C@@H]1CN(C(C)(C)C)C[C@H]1c1ccc(F)cc1F [Example 9]
15 | – | – | – | 7.47 | CCC(=O)N[C@@H](CC(C)(C)C)C(=O)N1CCN(C(=O)[C@@H]2CN(C3CCOCC3)C[C@H]2c2ccc(Cl)cc2F)CC12CC2 [Example 13]
16 | – | – | – | 6.89 | CCC(=O)N[C@@H](CC(C)(C)C)C(=O)N1CCN(C(=O)[C@@H]2CN(C3CCOCC3)C[C@H]2c2ccc(Cl)cc2F)[C@@H](C)C1 [Example 21]
17 | – | – | – | 6.74 | CC(=O)N[C@@H](Cc1ccccc1Cl)C(=O)N1CCN(C(=O)C2CN(C(C)(C)C)CC2c2cc(F)c(Cl)c(F)c2)[C@@H](C)C1 (stereo partly shown) [Example 22]
18 | – | – | – | 6.92 | CC(=O)N[C@@H](CC(C)(C)C)C(=O)N1CCN(C(=O)[C@@H]2CN(C3CCCCC3)C[C@H]2c2ccc(F)cc2F)[C@@H](C)C1 [Example 25]
19 | – | – | – | 5.30 | CC(=O)N[C@@H](CC(C)(C)C)C(=O)N1CCN(C(=O)[C@@H]2CN(C)C[C@H]2c2ccc(F)cc2F)[C@@H](C)C1 [Example 26]
